Laboratory results published in paper PMC10208570, “Peptidomimetic antibiotics disrupt the lipopolysaccharide transport bridge of drug-resistant Enterobacteriaceae” (Science Advances, 2023).
Values after ≈ are worked out from the molar mass of the structure shown. Where a SMILES comes first, the peptide text is derived from it. Bridges are numbered along the chain shown (N, C = ends). [ ]: non-standard residue; d: D form. The star is where a group is joined. Val(Nα-amidino) = CC(C)[C@H](NC(=N)N)C(=O)*; Hyp = O=C(O)[C@@H]1C[C@@H](O)CN1; Pen = CC(C)(S)[C@H](N)C(=O)O; dDab = NCC[C@@H](N)C(=O)O; Dab = NCC[C@H](N)C(=O)O

Experiments:
[1] = target: T1, LptAm (Escherichia coli, UniProt P0ADV1); experiment: biochemical; format: binding, E. coli
T1 construct: His6-GB1 (N, cleaved yes); made in house; host or cells: E. coli BL21 (DE3)
T1 sequence (P0ADV1 28-159): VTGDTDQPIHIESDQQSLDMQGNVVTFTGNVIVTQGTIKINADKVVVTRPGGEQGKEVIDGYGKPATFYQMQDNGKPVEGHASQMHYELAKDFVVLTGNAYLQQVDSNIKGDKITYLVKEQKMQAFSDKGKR
Description: (§1) Protein stocks were purified and concentrated in buffer 1 [50 mM Na-Pi (pH 7) and 150 mM NaCl] and, if necessary, diluted to desired concentrations using buffer 2 [50 mM Na-Pi (pH 7), 150 mM NaCl, and 0.05% Tween 20]. Peptide stocks and fluorescently labeled peptide stocks were made in buffer 2. Every serial dilution consisted of 24 wells, the first well with the highest concentrate and the last well (well 24) with the lowest. First, 50 μl of buffer 2 was added to the wells 2 to 24 of each serial dilution. Then, 100 μl of concentrated unlabeled peptide/protein in their respective buffers was added to the first well. Fifty microliters were taken from the first well and added to the second well for a 1:1 serial dilution and continued for the 24 wells. […] Plates were covered with adhesive seals and left to incubate overnight at 4°C before FP measurements the next day. Anisotropy was measured using the Tecan Safire2 plate reader using a 10-nm bandwidth and setting the excitation and emission wavelengths to 635 and 670 nm, respectively. The G-factor (G) was also determined empirically as 1.094 for the instrument and included in all the anisotropy calculations.
(§2) For the indirect binding assays, r was calculated in the same manner as the direct binding assays. […] The control was subtracted from r to yield r′. Data were fit to a sigmoidal interpolation model on GraphPad Prism 9, and an IC50 was generated for each unlabeled peptide or protein measured.

[2] = target: T2, LptAmQ62L (Escherichia coli, UniProt P0ADV1, Q62L); experiment: biochemical; format: binding, E. coli
T2 construct: His6-GB1 (N, cleaved yes); made in house; host or cells: E. coli BL21 (DE3)
T2 sequence (P0ADV1 28-159 Q62L): as the sequence (P0ADV1 28-159) above, with Q35L counted along it
Description: as §1, §2

[3] = tested on: Salmonella enterica subsp. enterica; settings: CLSI microdilution method; LptA sequence identity 91
Description: (§3) MIC assays [Clinical and Laboratory Standards Institute (CLSI) methodology] and serial passage studies were performed as described by Luther et al. ([6]). […] Resistant mutants were isolated, and their MIC values were determined and sent to Microbes NG (Birmingham, United Kingdom) for whole-genome sequencing and bioinformatic analysis.

[4] = tested on: Pantoea agglomerans; settings: CLSI microdilution method; LptA sequence identity 69
Description: as §3

[5] = tested on: Klebsiella pneumoniae NCTC 13443 YejM mutant; experiment: microbe, parasite or virus in culture; settings: Table S9 panel; other mutation
In short: (§4)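 MICs were determined by CLSI methodology. Serial passage studies were also run, and resistant mutants isolated from them were re-tested for MIC and then characterised by whole-genome sequencing.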

[6] = tested on: Klebsiella pneumoniae NCTC 13443 LptA I36S mutant; experiment: microbe, parasite or virus in culture; settings: Table S9 panel
In short: as §4

[7] = tested on: Klebsiella pneumoniae ATCC 43816 LapB mutant; experiment: microbe, parasite or virus in culture; settings: Table S9 panel; other mutation
In short: as §4

[8] = tested on: Klebsiella pneumoniae NCTC 13443 LpxC, LpxD mutant; experiment: microbe, parasite or virus in culture; settings: Table S9 panel; other mutation
In short: as §4

[9] = tested on: Escherichia coli ATCC 25922 KdsD mutant; experiment: microbe, parasite or virus in culture; settings: Table S9 panel; other mutation
In short: as §4

[10] = tested on: Klebsiella pneumoniae ATCC 43816 LptA I36S mutant; experiment: microbe, parasite or virus in culture; settings: Table S9 panel
In short: as §4

[11] = tested on: Escherichia coli ATCC 25922 LptA E84D mutant; experiment: microbe, parasite or virus in culture; settings: Table S9 panel
In short: as §4

[12] = tested on: Klebsiella pneumoniae ATCC 43816 PglJ, PhnJ, ThiH mutant; experiment: microbe, parasite or virus in culture; settings: Table S9 panel; other mutation
In short: as §4

[13] = tested on: Klebsiella pneumoniae ATCC 43816 LptA L116Q mutant; experiment: microbe, parasite or virus in culture; settings: Table S9 panel
In short: as §4

[14] = tested on: Klebsiella pneumoniae ATCC 43816 LptA I36N mutant; experiment: microbe, parasite or virus in culture; settings: Table S9 panel
In short: as §4

[15] = tested on: K. pneumoniae ATCC 43816 LptA Q62L mutant; experiment: microbe, parasite or virus in culture; settings: Table S9 panel
In short: as §4

[16] = target: T3, LptAmQ62L, D33A (Escherichia coli, UniProt P0ADV1, D33A/Q62L); experiment: FP indirect (competition) binding assay; design: species or system E. coli
T3 construct: His6-GB1 (N, cleaved yes); made in house; host or cells: E. coli BL21 (DE3)
T3 sequence (P0ADV1 28-159 D33A/Q62L): as the sequence (P0ADV1 28-159) above, with D6A, Q35L counted along it
Description: as §1, §2

[17] = target: T4, LptAmD33A (Escherichia coli, UniProt P0ADV1, D33A); experiment: FP indirect (competition) binding assay; design: species or system E. coli
T4 construct: His6-GB1 (N, cleaved yes); made in house; host or cells: E. coli BL21 (DE3)
T4 sequence (P0ADV1 28-159 D33A): as the sequence (P0ADV1 28-159) above, with D6A counted along it
Description: as §1, §2

CC[C@H](C)[C@H](NC(=O)[C@@H]1C[C@@H](O)CN1C(=O)[C@@H](N)C(C)C)C(=O)N[C@H](C(=O)N[C@@H](Cc1ccc(O)cc1)C(=O)N[C@@H]1C(=O)N[C@@H](CC(N)=O)C(=O)N[C@@H](CCCNC(=N)N)C(=O)N[C@@H](CCN)C(=O)N[C@@H]([C@@H](C)O)C(=O)N[C@H](CCN)C(=O)N[C@@H](CCCCN)C(=O)N[C@H](C(=O)N[C@@H](CCN)C(=O)N[C@@H](CCCNC(=N)N)C(=O)N[C@@H](Cc2ccc(O)cc2)C(=O)O)CSSC1(C)C)[C@@H](C)O [Compound 6] (H-V[Hyp]ITY[Pen]NR[Dab]T[dDab]KC[Dab]RY-OH; disulfide 6-13)
IC50 [1]: 16.9 ± 1 nM | Ki [1]: 2.8 ± 0.2 nM | IC50 [2]: 14.6 ± 2.5 nM | Ki [2]: 9.9 ± 1.7 nM | MIC Salmonella enterica subsp. enterica [3]: 0.5 µg/mL (≈ 0.255 µM) | MIC Pantoea agglomerans [4]: 4 µg/mL (≈ 2.04 µM)

CC[C@H](C)[C@H](NC(=O)[C@@H]1C[C@@H](O)CN1C(=O)[C@@H](NC(=N)N)C(C)C)C(=O)N[C@H](C(=O)N[C@@H](Cc1ccc(O)cc1)C(=O)N[C@@H]1C(=O)N[C@@H](CC(N)=O)C(=O)N[C@@H](CCCNC(=N)N)C(=O)N[C@@H](CCN)C(=O)N[C@@H]([C@@H](C)O)C(=O)N[C@H](CCN)C(=O)N[C@@H](CCCCN)C(=O)N[C@H](C(=O)N[C@@H](CCN)C(=O)N[C@@H](CCCNC(=N)N)C(=O)N[C@@H](Cc2ccc(O)cc2)C(=O)O)CSSC1(C)C)[C@@H](C)O [Compound 7] ({Val(Nα-amidino)}-[Hyp]ITY[Pen]NR[Dab]T[dDab]KC[Dab]RY-OH; disulfide 5-12)
MIC Klebsiella pneumoniae NCTC 13443 YejM (1x) [5]: 2 µg/mL (≈ 0.999 µM) | MIC Klebsiella pneumoniae NCTC 13443 LptA I36S (2x) [6]: 8 µg/mL (≈ 4 µM) | MIC Klebsiella pneumoniae ATCC 43816 LapB (1x) [7]: 0.5 µg/mL (≈ 0.25 µM) | MIC Klebsiella pneumoniae NCTC 13443 LpxC, LpxD (1x) [8]: 1 µg/mL (≈ 0.5 µM) | MIC Escherichia coli ATCC 25922 KdsD (2x) [9]: 0.5 µg/mL (≈ 0.25 µM) | MIC Klebsiella pneumoniae ATCC 43816 LptA I36S (1x) [10]: 2 µg/mL (≈ 0.999 µM) | MIC Escherichia coli ATCC 25922 LptA E84D (1x) [11]: 1 µg/mL (≈ 0.5 µM) | MIC Klebsiella pneumoniae ATCC 43816 PglJ, PhnJ, ThiH (1x) [12]: 0.5 µg/mL (≈ 0.25 µM) | MIC Klebsiella pneumoniae ATCC 43816 LptA L116Q (1x) [13]: 2 µg/mL (≈ 0.999 µM) | MIC Klebsiella pneumoniae ATCC 43816 LptA I36N (1x) [14]: 2 µg/mL (≈ 0.999 µM) | MIC Klebsiella pneumoniae ATCC 43816 LptA Q62L (4x) [15]: 8 µg/mL (≈ 4 µM) | IC50 [1]: 11.7 ± 0.5 nM | Ki [1]: 1.9 ± 0.1 nM | IC50 [2]: 25.4 ± 4.6 nM | Ki [2]: 17.2 ± 3.1 nM | MIC Salmonella enterica subsp. enterica [3]: 1 µg/mL (≈ 0.5 µM) | MIC Pantoea agglomerans [4]: > 8 µg/mL | IC50 [16]: 23.2 ± 10 nM | Ki [16]: 17 ± 7.3 nM | IC50 [17]: 32.3 ± 3.4 nM | Ki [17]: 23.4 ± 2.5 nM
